Data: patent publication US20100266541A1, “METHODS AND AGENTS FOR […] IMMUNE RESPONSE” (priority 2006, published 2010)
Square brackets hold non-standard residues; d marks the D form. Peptide text beside a SMILES is read from it. * marks the point of attachment. Sta = CC(C)C[C@H](N)[C@@H](O)CC(=O)O; Isovaleryl = CC(C)CC(=O)*

Legend:
[1] = tested on: LC3-II; assay: LC3-II accumulation by anti-LC3 Western blotting; format: cell-based, human; details: for LC3-II accumulation (Western blot, words): 10 hours; for LC3-II accumulation, density quantification of Western blots: 10 hours of CQ-treatment; for effect on LC3-II levels and hence macroautophagy: 293T, HaCat and MDAMC, 24 h, 1000 U/ml
Description: Cells were lysed in ice cold lysis buffer (50 mM Tris-HCl pH 8.0, 140 mM NaCl, 1 mM DTT, 1.5 mM MgCl2, 0.5% NP-40 with Complete protease inhibitor cocktail, Roche, Indianapolis, Ind.) for 5 mim on ice (about 10^6 cells/100 μl). Whole cells and cell debris were pelleted by low speed centrifugation (400 g, 3 mil) and cleared supernatants were transferred to a new tube. Protein concentration was determined by BCA protein assay (Pierce, Rockford, Ill.). […] Primary antibodies were visualized with HRP-conjugated goat anti-rabbit IgG (Biorad, Hercules; CA) and the ECLplus detection system (Amersham Biosciences, UK).
This also allowed for extension of the analysis from epithelial cell lines to MHC class II-positive cell types that are more difficult to transfect, such as B cell lines and primary monocytes/dendritic cells. The fact that autophagosome-associated LC3 (called LC3-II) and free cytosolic LC3 (called LC3-I) can be distinguished by their apparent molecular weights in SDS-PAGE gel electrophoresis (16 and 18 lcD, respectively) was used, since it can be quantified separately in anti-LC3 Western blots.

[2] = tested on: MDAMC cells stably transfected with GFP-LC3; details: CQ-treated versus untreated cells
Description: MDAMC cells stably transfected with GFP-LC3 were fixed for 1 h at RT with 4% paraformaldehyde (PFA, Electron Microscopy Sciences) in 0.25 M Hepes, pH 7.4, followed by overnight fixation at 4° C. in 8% PFA/Hepes. Cells were washed 1× in PBS, quenched with 0.1 M NH4Cl in PBS for 10 min, scraped into 1% gelatin in PBS and then embedded in 5% gelatin in PBS. Small pieces of the gelatin pellets were infiltrated overnight at 4° C. with 2.3 M sucrose in PBS, mounted onto cryospecimen pins and frozen in liquid nitrogen. […] After quenching with 0.1 M NH4Cl in PBS for 10 min, the grids were incubated for 20 min in a solution of 1% fish skin gelatin (FSG, Sigma-Aldrich) in PBS. They were then labeled with rabbit anti-HLA-DR antiserum C6861 (a gift from Peter Cresswell, Yale University, New Haven, Conn.) in PBS-FSH for 30 min at RT, washed 4× in PBS and then incubated with 10 or 15 nm protein A-gold (purchased from the Department of Cell Biology, University of Utrecht, Netherlands). After 4 more washes in PBS, grids were fixed in 1% glutaraldehyde in PBS for 5 min at RT, washed 5× in PBS and again quenched with 0.1 M NH4Cl in PBS for 10 min. The same labeling procedure was repeated with a rabbit anti-GFP antibody (Invitrogen-Molecular Probes, Carlsbad, Calif.) and after final fixation in 1% glutaraldehyde, grids were washed 8× in HPLC-grade water.

[3] = tested on: immature DCs; details: 10 hr of CQ treatment
[4] = tested on: MDAMC cells; assay: Colocalization of GFP-LC3 with compartment markers by confocal microscopy in MDAMC cells; format: cell-based, human
[5] = tested on: GFP-LC3 labeled autophagosomes; format: cell-based, human; design: accumulation of GFP-LC3-labeled autophagosomes: dose or concentration left out as unconfirmed
[6] = tested on: atg12; assay: Knockdown of atg12 by siRNA in MDAMC cells; format: cell-based, human
Excerpt: The following 21-nt siRNA oligos were used:
Atg12 antisense: 5′-[…]dT (SEQ ID NO:6; nt. 687-705 of NM_004707). As a control, lamin A/Cspecific siRNA from Dharmacon (Lamin sense: 5′-CUGGACUUCCAGAAGAACAdTdT (SEQ ID NO:7); Lamin antisense: 5′-UGUUCUUCUGGAAGUCCAGdTdT (SEQ ID NO:8) or firefly luciferase-specific siRNA (GL2 sense: 50-CGUACGCGGAAUACUUCGAdTdT; SEQ ID NO:9; GL2 antisense: 5′-UCGAAGUAUUCCGCGUACGdTdT; SEQ ID NO:10) was used. siRNA duplexes were delivered by transfection with lipofectamine 2000 (Invitrogen) at 30 pmol siRNA+[…] lipofectamine/well in a 24-well format, and effect of knockdown was analyzed after 2-3 days.

[7] = MDAMC cells, CQ 50 μM, E64 28 μM, Leupeptin 40 μM and Pepstatin A 15 μM together

Compound: CC(C)C[C@H](NC(=O)[C@H]1O[C@@H]1C(=O)O)C(=O)NCCCCN=C(N)N [E64]
- LC3-II accumulation (Western blot, words) [1, 7]: strong accumulation of LC3-II

Compound: CC(=O)N[C@@H](CC(C)C)C(=O)N[C@@H](CC(C)C)C(=O)N[C@H](C=O)CCCNC(=N)N [Leupeptin]
- LC3-II accumulation (Western blot, words) [1, 7]: strong accumulation of LC3-II

Compound: CC(C)CC(=O)N[C@H](C(=O)N[C@H](C(=O)N[C@@H](CC(C)C)[C@@H](O)CC(=O)N[C@@H](C)C(=O)N[C@@H](CC(C)C)[C@@H](O)CC(=O)O)C(C)C)C(C)C [Pepstatin A] (Isovaleryl-VV[Sta]A[Sta]-OH)
- LC3-II accumulation (Western blot, words) [1, 7]: strong accumulation of LC3-II

Compound: CCN(CC)CCCC(C)Nc1ccnc2cc(Cl)ccc12 (stereo not drawn) [chloroquine]
- frequency of GFP-LC3/MHC class II double-labeled multivesicular compartments [2]: found much more frequently
- MHC class II-labeled compartments positive for GFP-LC3 [3]: 41% (±7%)
- LC3-II accumulation, density quantification of Western blots ([1]; 293 cells): 30 fold
- onset of increase of cellular LC3-II levels ([1]; HaCat cell line, time course): already increased 1 hour after CQ-treatment
- LC3-II accumulation, density quantification of Western blots ([1]; HaCat cells): 5 fold
- LC3-II accumulation, density quantification of Western blots ([1]; MDAMC cells): 5 fold
- LC3-II accumulation (Western blot, words) [1, 7]: strong accumulation of LC3-II
- LC3-II accumulation (Western blot, words) ([1]; epithelial and B cell lines, CD14+ monocytes, dendritic cells): strongly accumulated
- HLA-DM colocalization with GFP-LC3, LSM510 histogram tool ([4]; IFNγ-treated MDAMC, after chloroquine treatment (38 untreated)): 45%
- MHC class II colocalization with GFP-LC3, LSM510 histogram tool ([4]; IFNγ-treated MDAMC, after chloroquine treatment (40 untreated)): 44%
- HLA-DM+ vesicles colocalized with GFP-LC3, LSM 510 profile tool ([4]; IFNγ-treated MDAMC, after chloroquine treatment (52 untreated)): 71%
- MHC class II+ compartments colocalized with GFP-LC3, LSM 510 profile tool ([4]; IFNγ-treated MDAMC, after chloroquine treatment (58 untreated)): 86%
- EEA1 colocalization with GFP-LC3, histogram analysis ([4]; MDAMC, after chloroquine treatment (7% untreated)): 21%
- EEA1 colocalization with GFP-LC3, profile analysis ([4]; MDAMC, after chloroquine treatment (9% untreated)): 26%
- accumulation of GFP-LC3-labeled autophagosomes ([5]; B-LCL, immature and mature DCs, chloroquine for 10 hr): strongly accumulated
- accumulation of GFP-LC3 in cytosolic vesicles ([5]; HaCat, HeLa, MDAMC, 293 cell lines, 10 hours of CQ-treatment): strongly accumulated in cytosolic vesicles

Compound: ATG12 siRNA: 21-nt siRNA duplex against atg12, SEQ ID NO: 5 and 6 (nt. 687-705 of NM_004707) (chain 1 UCAACUUGCUACUACAUGAUDT; chain 2 UCAUGUAGUAGCAAGUUGAUDT; chemistry not fully specified; listed as Homo sapiens)
- accumulation of GFP-LC3+ vesicles upon CQ treatment after knockdown ([6]; MDAMC cells stably expressing GFP-LC3, 2 days after transfection, CQ 6 hr): completely abrogates accumulation of these vesicles
- colocalization of MP1-LC3-containing vesicles with MHC class II compartments after knockdown ([6]; MDAMC cells stably expressing MP1-LC3, IFNγ 200 U/ml, 50 μM chloroquine last 6 hours): completely abrogated

Compound: IFN-α
- effect on LC3-II levels and hence macroautophagy [1]: not affected

Compound: IFNγ: Recombinant human IFNγ
- effect on LC3-II levels and hence macroautophagy [1]: not affected
- formation of MHC class II positive compartments ([4]; human epithelial cell lines, IFNγ treatment): induced the formation of MHC class II positive compartments
